Test results: ChEMBL document CHEMBL1201862, “PubChem BioAssay data set” (2004)
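Growth conditions: 96-well plates. Treatment: test compound, 48 hours, 5 concentrations. Analysis: linear interpolation between bracketing concentrations; unreached endpoints set to highest concentration. At the GI50, growth is halved.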 The source made the active and inactive calls. Cut-off read from the data, not from the text of the source: active = GI50 up to about 1.1 µM and inactive = higher.

How the values were obtained:
Assay in all cases: growth of human tumour cells (NCI), 48 h
[1] = system: Hs-578T
[2] = system: DMS-114
[3] = system: HOP-18
[4] = system: KM-20L2
[5] = system: LXFL 529
[6] = system: M19-MEL
[7] = system: SNB-78
[8] = system: XF498
[9] = system: RXF 631

Q: `c1ccc2cc(CN3CCC(C4CCN(Cc5ccc6ccccc6c5)CC4)CC3)ccc2c1` was tested. Which GI50 [1] did it give?
A: The GI50 was 2.49 µM (inactive).

Q: Which results are given for `Cc1c(C(=N)N)oc2ccccc12`?
A: GI50 [2]: > 100 µM (inactive); GI50 [3]: > 100 µM (inactive); GI50 [4]: > 100 µM (inactive); GI50 [5]: > 100 µM (inactive); GI50 [6]: > 100 µM (inactive); GI50 [7]: > 100 µM (inactive); GI50 [8]: 21.4 µM (inactive)

Q: How did the GI50 [2] turn out when `CCN1CCC(O)(c2ccc(Cl)c(Cl)c2)C(C(=O)c2ccc(Cl)c(Cl)c2)C1` (centres undefined) was run?
A: The GI50 was 17.1 µM (inactive).

Q: And the GI50 [4]?
A: Its GI50 is 17.9 µM (inactive).

Q: What about the GI50 [5] of the same molecule?
A: Its GI50 is 16.2 µM (inactive).

Q: What about the GI50 [8] of the same molecule?
A: The GI50 was 19.2 µM (inactive).

Q: `OCCC/N=C1N=C(Cl)/C(=C\c2ccccc2)N\1` was tested. Which GI50 [1] did it give?
A: The GI50 was > 100 µM (inactive).

Q: Which GI50 [1] does the source give for `CN(C)c1ccc(-c2ccc(N(C)C)c3n[se]nc23)c2n[se]nc12` here?
A: The GI50 was 88.1 µM (inactive).

Q: How did the GI50 [1] turn out when `COc1cccc(Nc2nc(N)nc(N)c2N=O)c1` was run?
A: Its GI50 is 14.5 µM (inactive).

Q: Which GI50 [1] does the source give for `O=C(CC(NC(=O)OCc1ccccc1)C(=O)NC1Cc2ccccc2C1=O)OCc1ccccc1` (centres undefined) here?
A: Its GI50 is 84.3 µM (inactive).

Q: `COc1ccc(/C=C2\N=C(c3ccccc3)N(NC3=NC(=O)CC(=O)N3)C2=O)cc1` was tested. Which GI50 [1] did it give?
A: Its GI50 is > 100 µM (inactive).

Q: With `COCc1nc2c(OC)c(-c3nc4ccc(N5CCN(C)CC5)cc4[nH]3)cc(OC)c2[nH]1` as the molecule, how does the GI50 [1] read?
A: The GI50 was 69.8 µM (inactive).

Q: Which GI50 [1] does the source give for `COc1ccc2nc3c([N+](=O)[O-])ccc4c3c(c2c1)N=CN4CCN(C)C` here?
A: The GI50 was 6.73 µM (inactive).

Q: For `O=C1c2ccccc2C(=O)N1n1c(Cc2ccc(Cl)cc2)n[nH]c1=O`, which GI50 [1] is on record?
A: Its GI50 is > 100 µM (inactive).

Q: Which GI50 [2] does the source give for `Cn1cnc([N+](=O)[O-])c1Sc1nc2cc(Cl)c(F)cc2[nH]1` here?
A: The GI50 was 6.35 µM (inactive).

Q: What about the GI50 [3] of the same molecule?
A: The GI50 was 7.8 µM (inactive).

Q: What about the GI50 [4] of the same molecule?
A: The GI50 was 11.4 µM (inactive).

Q: What about the GI50 [5] of the same molecule?
A: The GI50 was 5.7 µM (inactive).

Q: What about the GI50 [6] of the same molecule?
A: The GI50 was 11.7 µM (inactive).

Q: What about the GI50 [7] of the same molecule?
A: The GI50 was 2.43 µM (inactive).

Q: Which GI50 [2] does the source give for `CCc1ccc(Nc2ccc([N+](=O)[O-])cc2[N+](=O)[O-])cc1` here?
A: The GI50 was 29.4 µM (inactive).

Q: What about the GI50 [4] of the same molecule?
A: Its GI50 is 69.3 µM (inactive).

Q: And the GI50 [5]?
A: The GI50 was 50.9 µM (inactive).

Q: And the GI50 [6]?
A: The GI50 was > 100 µM (inactive).

Q: And the GI50 [7]?
A: Its GI50 is 87.3 µM (inactive).

Q: What about the GI50 [8] of the same molecule?
A: Its GI50 is > 100 µM (inactive).

Q: Which results are given for `CC12CCC([C@H](N3CCOCC3)/C1=N\OCCN1CCCC1)C2(C)C` (some centres undefined)?
A: GI50 [2]: 71.9 µM (inactive); GI50 [3]: > 100 µM (inactive); GI50 [4]: > 100 µM (inactive); GI50 [5]: > 100 µM (inactive); GI50 [6]: > 100 µM (inactive); GI50 [9]: > 100 µM (inactive); GI50 [7]: > 100 µM (inactive)

Q: `CCN(CC)c1ccc(C2NC(=O)c3ccccc3N2)cc1` (centres undefined) was tested. Which GI50 [1] did it give?
A: Its GI50 is 9.64 µM (inactive).

Q: Which GI50 [1] does the source give for `CSc1n[nH]c2[nH]nc(C)c12` here?
A: Its GI50 is > 100 µM (inactive).

Q: `CNC(SC)=C1C(=O)OC(C)(C)OC1=O` was tested. Which GI50 [2] did it give?
A: The GI50 was 34.8 µM (inactive).

Q: And the GI50 [3]?
A: Its GI50 is > 100 µM (inactive).

Q: And the GI50 [4]?
A: The GI50 was > 100 µM (inactive).

Q: What about the GI50 [5] of the same molecule?
A: The GI50 was > 100 µM (inactive).

Q: What about the GI50 [6] of the same molecule?
A: The GI50 was > 100 µM (inactive).

Q: And the GI50 [7]?
A: Its GI50 is 36.4 µM (inactive).

Q: What about the GI50 [8] of the same molecule?
A: The GI50 was > 100 µM (inactive).

Q: With `O=C(O)C/N=C(\C(=N\CC(=O)O)c1ccccc1)c1ccccc1` as the molecule, how does the GI50 [1] read?
A: Its GI50 is > 100 µM (inactive).

Q: For `CSc1nc(Cl)c2c(n1)Sc1nc3ccccc3n1N=C2`, which GI50 [1] is on record?
A: The GI50 was 26.7 µM (inactive).

Q: For `CN(C)P(=O)(/C(N)=N/Nc1ccc([N+](=O)[O-])cc1)N(C)C`, which GI50 [2] is on record?
A: Its GI50 is 61.7 µM (inactive).

Q: What about the GI50 [4] of the same molecule?
A: Its GI50 is > 100 µM (inactive).

Q: What about the GI50 [5] of the same molecule?
A: Its GI50 is > 100 µM (inactive).

Q: What about the GI50 [6] of the same molecule?
A: The GI50 was > 100 µM (inactive).

Q: And the GI50 [7]?
A: Its GI50 is > 100 µM (inactive).

Q: And the GI50 [8]?
A: The GI50 was > 100 µM (inactive).

Q: For `CC1=Nc2ccccc2S(=O)(=O)N1`, which GI50 [2] is on record?
A: The GI50 was > 100 µM (inactive).

Q: And the GI50 [3]?
A: The GI50 was > 100 µM (inactive).

Q: What about the GI50 [4] of the same molecule?
A: Its GI50 is > 100 µM (inactive).

Q: What about the GI50 [5] of the same molecule?
A: Its GI50 is > 100 µM (inactive).

Q: What about the GI50 [6] of the same molecule?
A: Its GI50 is > 100 µM (inactive).

Q: And the GI50 [7]?
A: The GI50 was > 100 µM (inactive).

Q: `CCCCCCCCCCCCCCCCNc1nc(=O)n(C2OC(C)C(O)C2O)cc1F` (centres undefined) was tested. Which GI50 [1] did it give?
A: Its GI50 is 21.8 µM (inactive).

Q: Which GI50 [1] does the source give for `CN1CCN(Cn2nc(-c3ccccc3)n(/N=C/c3ccc(-c4ccc(Cl)cc4Cl)o3)c2=S)CC1` here?
A: Its GI50 is 7.91 µM (inactive).

Q: For `N#Cc1c(C#N)c(-c2ccccc2)n(-c2ccccc2)c1N`, which GI50 [1] is on record?
A: The GI50 was 21 µM (inactive).

Q: For `COc1cccc(OC)c1NC(=O)C(=O)Nn1c(NNC(=O)c2ccncc2)nc2ccccc2c1=O`, which GI50 [1] is on record?
A: Its GI50 is > 100 µM (inactive).

Q: `O=C(CCN1CCN(c2ccccc2)CC1)N1CCc2c([nH]c3ccccc23)C1c1cccnc1` (centres undefined) was tested. Which GI50 [2] did it give?
A: Its GI50 is 13.2 µM (inactive).

Q: What about the GI50 [3] of the same molecule?
A: The GI50 was 18.5 µM (inactive).

Q: And the GI50 [4]?
A: Its GI50 is 15.9 µM (inactive).

Q: What about the GI50 [5] of the same molecule?
A: Its GI50 is 16.3 µM (inactive).

Q: What about the GI50 [6] of the same molecule?
A: Its GI50 is 19.9 µM (inactive).

Q: And the GI50 [7]?
A: Its GI50 is 16.1 µM (inactive).

Q: `CC1=C(CO)C(=O)O[C@@H]([C@@H](C)[C@H]2CC[C@H]3[C@@H]4C[C@@H](O)[C@@]5(O)CC=CC(=O)[C@]5(C)[C@H]4CC[C@]23C)C1` [JABOROSALACTONE D] was tested. Which GI50 [1] did it give?
A: Its GI50 is 35.7 µM (inactive).

Q: With `CCC1CC(C)C(O)/C=C/C=C/CC(C)OC(=O)CC(O)C(OC)C1OC1OC(C)CC(O)(C(C)=O)C1O` (centres undefined) as the molecule, how does the GI50 [1] read?
A: Its GI50 is 19.7 µM (inactive).

Q: With `O=C1c2ccccc2C(=O)C2C3c4ccccc4C(c4ccccc43)C12` (centres undefined) as the molecule, how does the GI50 [2] read?
A: The GI50 was 16.8 µM (inactive).

Q: What about the GI50 [4] of the same molecule?
A: The GI50 was > 100 µM (inactive).

Q: And the GI50 [5]?
A: Its GI50 is 15.3 µM (inactive).

Q: And the GI50 [6]?
A: The GI50 was 18.5 µM (inactive).

Q: What about the GI50 [7] of the same molecule?
A: The GI50 was 18.7 µM (inactive).
